ChEMBL document CHEMBL3045319, “Synthesis, antitumor activity, and structureactivity relationship of some 4H-pyrano[3,2-h]quinoline and 7H-pyrimido[4,5:6,5]pyrano[3,2-h]quinoline derivatives” (Med Chem Res, 2013)
In brackets after ≈: the same amount, converted by molar mass.

Experiments:
[1] = system: HepG2; test: Cytotoxicity against Homo sapiens (human) HepG2 cells assessed as cell viability at 1.56 ug/ml after 48 hr by MTT assay relative to control; format: functional; conditions: HepG2, 48 h, read-out: Activity
[2] = system: MCF7; test: Cytotoxicity against Homo sapiens (human) MCF7 cells assessed as cell viability at 6.25 ug/ml after 48 hr by MTT assay relative to control; format: functional; conditions: MCF7, 48 h, read-out: Activity
[3] = system: HepG2; test: Cytotoxicity against Homo sapiens (human) HepG2 cells assessed as cell viability at 50 ug/ml after 48 hr by MTT assay relative to control; format: functional; conditions: HepG2, 48 h, read-out: Activity
[4] = Cytotoxicity against Homo sapiens (human) HCT cells assessed as cell viability at 6.25 ug/ml after 48 hr by MTT assay relative to control; format: functional; conditions: read-out: Activity
[5] = system: HepG2; test: Cytotoxicity against Homo sapiens (human) HepG2 cells assessed as cell viability at 25 ug/ml after 48 hr by MTT assay relative to control; format: functional; conditions: HepG2, 48 h, read-out: Activity
[6] = system: MCF7; test: Cytotoxicity against Homo sapiens (human) MCF7 cells after 48 hr by MTT assay; format: functional, cell-based; conditions: MCF7, 48 h
[7] = Cytotoxicity against Homo sapiens (human) HCT cells assessed as cell viability at 25 ug/ml after 48 hr by MTT assay relative to control; format: functional; conditions: read-out: Activity
[8] = Cytotoxicity against Homo sapiens (human) HCT cells assessed as cell viability at 12.5 ug/ml after 48 hr by MTT assay relative to control; format: functional; conditions: read-out: Activity
[9] = system: HepG2; test: Cytotoxicity against Homo sapiens (human) HepG2 cells assessed as cell viability at 12.5 ug/ml after 48 hr by MTT assay relative to control; format: functional; conditions: HepG2, 48 h, read-out: Activity
[10] = system: MCF7; test: Cytotoxicity against Homo sapiens (human) MCF7 cells assessed as cell viability at 50 ug/ml after 48 hr by MTT assay relative to control; format: functional; conditions: MCF7, 48 h, read-out: Activity
[11] = system: HepG2; test: Cytotoxicity against Homo sapiens (human) HepG2 cells assessed as cell viability at 6.25 ug/ml after 48 hr by MTT assay relative to control; format: functional; conditions: HepG2, 48 h, read-out: Activity
[12] = Cytotoxicity against Homo sapiens (human) HCT cells assessed as cell viability at 50 ug/ml after 48 hr by MTT assay relative to control; format: functional; conditions: read-out: Activity
[13] = system: MCF7; test: Cytotoxicity against Homo sapiens (human) MCF7 cells assessed as cell viability at 1.56 ug/ml after 48 hr by MTT assay relative to control; format: functional; conditions: MCF7, 48 h, read-out: Activity
[14] = Cytotoxicity against Homo sapiens (human) HCT cells assessed as cell viability at 1.56 ug/ml after 48 hr by MTT assay relative to control; format: functional; conditions: read-out: Activity
[15] = Cytotoxicity against Homo sapiens (human) HCT cells assessed as cell viability at 3.125 ug/ml after 48 hr by MTT assay relative to control; format: functional; conditions: read-out: Activity
[16] = system: MCF7; test: Cytotoxicity against Homo sapiens (human) MCF7 cells assessed as cell viability at 12.5 ug/ml after 48 hr by MTT assay relative to control; format: functional; conditions: MCF7, 48 h, read-out: Activity
[17] = system: MCF7; test: Cytotoxicity against Homo sapiens (human) MCF7 cells assessed as cell viability at 25 ug/ml after 48 hr by MTT assay relative to control; format: functional; conditions: MCF7, 48 h, read-out: Activity
[18] = system: HepG2; test: Cytotoxicity against Homo sapiens (human) HepG2 cells after 48 hr by MTT assay; format: functional, cell-based; conditions: Homo sapiens, HepG2, 48 h; read-out: IC50
[19] = system: HepG2; test: Cytotoxicity against Homo sapiens (human) HepG2 cells assessed as cell viability at 3.125 ug/ml after 48 hr by MTT assay relative to control; format: functional; conditions: HepG2, 48 h, read-out: Activity
[20] = Cytotoxicity against Homo sapiens (human) HCT cells after 48 hr by MTT assay; format: functional, cell-based
[21] = system: MCF7; test: Cytotoxicity against Homo sapiens (human) MCF7 cells assessed as cell viability at 3.125 ug/ml after 48 hr by MTT assay relative to control; format: functional; conditions: MCF7, 48 h, read-out: Activity

Work on `N#CC1=C(/N=C/N)Oc2c(ccc3cccnc23)C1c1ccc(Cl)cc1` (stereo not drawn) yielded a viability at 1.56 µg/mL [1] of 96.6%, a viability at 6.25 µg/mL [2] of 67.4% and a viability at 50 µg/mL [3] of 35.8%. For the same compound, the viability at 6.25 µg/mL [4] was 52.4%, the viability at 25 µg/mL [5] was 43.4% and the IC50 [6] was 10.5 µg/mL (≈ 29.1 µM). For the same compound, the viability at 25 µg/mL [7] was 21.8%, the viability at 12.5 µg/mL [8] was 26.3% and the viability at 12.5 µg/mL [9] was 63.9%. The viability at 50 µg/mL [10] was 23.1%, the viability at 6.25 µg/mL [11] was 76.7% and the viability at 50 µg/mL [12] was 18.7%. The viability at 1.56 µg/mL [13] was 91.3%, the viability at 1.56 µg/mL [14] was 94.9% and the viability at 3.125 µg/mL [15] was 80.2%. It also gave a viability at 12.5 µg/mL [16] of 43.6%, a viability at 25 µg/mL [17] of 37.5% and an IC50 [18] of 23.6 µg/mL (≈ 65.4 µM). For the same compound, the viability at 3.125 µg/mL [19] was 87.4%, the IC50 [20] was 6.8 µg/mL (≈ 18.8 µM) and the viability at 3.125 µg/mL [21] was 79.7%.
For `Cc1ccc2ccc3c(c2n1)OC(/N=C/N)=C(C#N)C3c1ccc(Cl)cc1` (stereo not drawn), the viability at 1.56 µg/mL [1] was 80.5%, the viability at 6.25 µg/mL [2] was 89.3% and the viability at 50 µg/mL [3] was 41.2%. The viability at 6.25 µg/mL [4] was 70.7%, the viability at 25 µg/mL [5] was 53.8% and the IC50 [6] was greater than 50 µg/mL. For the same compound, the viability at 25 µg/mL [7] was 44.2%, the viability at 12.5 µg/mL [8] was 65.2% and the viability at 12.5 µg/mL [9] was 57.7%. For the same compound, the viability at 50 µg/mL [10] was 63.6%, the viability at 6.25 µg/mL [11] was 68% and the viability at 50 µg/mL [12] was 35.9%. The viability at 1.56 µg/mL [13] was 98.4%, the viability at 1.56 µg/mL [14] was 91.6% and the viability at 3.125 µg/mL [15] was 82.2%. The viability at 12.5 µg/mL [16] was 81.5%, the viability at 25 µg/mL [17] was 74.2% and the IC50 [18] was 32.9 µg/mL (≈ 87.8 µM). For the same compound, the viability at 3.125 µg/mL [19] was 76.7%, the IC50 [20] was 21.7 µg/mL (≈ 57.9 µM) and the viability at 3.125 µg/mL [21] was 96.5%.
Compound `Cc1ccc2ccc3c(c2n1)OC(/N=C/N)=C(C#N)C3c1ccc(Br)cc1` (stereo not drawn) has a viability at 1.56 µg/mL [1] of 98.8%, a viability at 6.25 µg/mL [2] of 89.8% and a viability at 50 µg/mL [3] of 52.3%. It also gave a viability at 6.25 µg/mL [4] of 49.8%, a viability at 25 µg/mL [5] of 60.7% and an IC50 [6] greater than 50 µg/mL. For the same compound, the viability at 25 µg/mL [7] was 34.1%, the viability at 12.5 µg/mL [8] was 42.9% and the viability at 12.5 µg/mL [9] was 65.5%. The viability at 50 µg/mL [10] was 56.2%, the viability at 6.25 µg/mL [11] was 81.2% and the viability at 50 µg/mL [12] was 24.8%. It also gave a viability at 1.56 µg/mL [13] of 100%, a viability at 1.56 µg/mL [14] of 86.9% and a viability at 3.125 µg/mL [15] of 65%. The viability at 12.5 µg/mL [16] was 81.2%, the viability at 25 µg/mL [17] was 69.6% and the IC50 [18] was greater than 50 µg/mL. It also gave a viability at 3.125 µg/mL [19] of 89.3%, an IC50 [20] of 6.2 µg/mL (≈ 14.8 µM) and a viability at 3.125 µg/mL [21] of 97.3%.
